Measured values: paper PMC7041945, “Misfolded proteins bind and activate death receptor 5 to trigger apoptosis during unresolved endoplasmic reticulum stress” (eLife, 2020)

Columns and labels:
[1] = test system: caspase 8 in HCT116 lysates; assay: Caspase 8 activity (caspase glo 8) of cell lysates / IP inputs; type: cell-based, Homo sapiens; settings: for Caspase 8 activity, fold change relative to GFP: AVG (n = 3 tech reps); for AVG fold change relative to GFP: average over lysate dilutions
Procedure: Cells harvested from a 6-well plate were resuspended in 100 μl of lysis buffer (30 mM HEPES pH 7.2, 150 mM NaCl, 1% Triton X-100) and lysed via needle shearing (25G, 10 passes) followed by a 30 min incubation on ice. Supernatant was collected after centrifuging at 1000xg for 5 min. For the caspase activity assay, 10 μl of supernatant diluted with lysis buffer (1:25, 1:50, 1:100 to stay within linear range of luminescence measurements) was incubated with 10 μl of the luminogenic caspase glo 8 substrate (Promega #PRG8200) in a 384-white walled plate (Corning 3574) for 45 min at RT before measuring luminescence on a Spectramax-M5 plate reader.

HCT116 cells = assay: Annexin V (and SytoxBlue) flow cytometry for apoptosis; type: cell-based, Homo sapiens; settings: for Annexin V +, Sytox Blue + cells / Annexin V +, Sytox Blue - cells / Annexin V -, Sytox Blue - cells: transfected 24 hr
Procedure: Cells seeded in a 6-well plate were transfected with the specified plasmid for 24 hr and harvested via trypsinization in complete media to allow a 30 min recovery at 37°C. The samples were then centrifuged at 500xg for 5 min and resuspended In 150 μl of a 1:20 dilution of Annexin V-AlexaFluor 647 conjugate (Thermo Scientific #A23204). Samples were transferred to a 96-well U-bottom plate and incubated in the dark for 15 min at RT. The distribution of apoptotic cells was determined by flow cytometry on a BD LSR II.

GAPDH = assay: qPCR of GAPDH (reference transcript); type: cell-based; settings: 24 hr, Rep 2
DR5 = assay: GFP immunoprecipitation: DR5 (FADD, caspase 8) recovered with GFP-tagged protein, Western blot; type: cell-based, Homo sapiens; settings: for fraction IP'ed: beads/input
Procedure: 15 cm dishes were seeded with 4 million HCT116 cells and allowed to recover for 18 hr prior to transfection. Samples were then transfected for 24 hr with the GFP-tagged ER trafficked protein, cytosolic GFP, or empty vector. To harvest apoptotic and living cells for each sample, all media and washes were collected. Cells were scraped in 2 ml of cold PBS and combined with the media and washes. Samples were centrifuged to pellet cells, washed with 1 ml cold PBS, and flash frozen in liquid N2 prior to lysis.
The cell pellets were resuspended in 750 μl of 30 mM HEPES pH 7.2, 150 mM NaCl, 1% Triton X-100 with 1x Roche protease inhibitor cocktail (if used subsequently for caspase glo 8 assay) or with 5x Roche protease inhibitor cocktail (if used for immunoblotting). The cells were lysed by mechanical shearing through a 25G needle for 13–15 plunges followed by incubation on ice for 30 min. The lysate was centrifuged at 2000xg for 5 min to remove debris and then incubated with 30 μl of GFP-Trap magnetic agarose beads (Chromotek gtma-20) for 4 hr at 4°C. The beads were then washed with 750 μl of lysis buffer for 10 min at 4°C for three rounds.
For Western blots, samples were eluted by adding 35 μl of non-reducing SDS gel loading buffer (50 mM Tris-HCl (pH 6.8), 2% SDS, 0.1% bromophenol blue, 10% glycerol) and incubated for 10 min at 70°C. The beads were then magnetically removed from the eluted sample before adding DTT to a final concentration of 25 mM. The entire sample was loaded onto the gel and immunoblotted for DR5, caspase 8, and GFP, in that order.

[2] = empty + Tg, siRNA non-targeting, stain AnnexinV-647, 2018-06-27
[3] = siRNA scrambled, 2017-01-17 Replicate
[4] = siRNA scrambled, 2018-06-21 Rep 1
[5] = siRNA scrambled, 2018-06-21 Rep 2
[6] = siRNA scrambled, mean of 3 replicates
[7] = GFP IP, HCT116, average of Rep 1 and Rep 2, SEM in separate column
[8] = GFP IP, HCT116, band intensity, Rep 1

With C/C=C(/C)C(=O)O[C@H]1C(C)=C2[C@H]([C@@H]1OC(=O)CCCCCCC)[C@@](C)(OC(C)=O)C[C@H](OC(=O)CCC)[C@@]1(O)[C@H]2OC(=O)[C@@]1(C)O [thapsigargin, reference compound] the “average fold change relative to empty” value ([1]; HCT116, rep 1, no siRNA named, average of 4 dilutions) was 1.771 fold change, the “fold change relative to empty” value ([1]; input, dilution 0.01, rep1) was 1.802 and the “fold change relative to empty” value ([1]; input, dilution 0.01, rep2) was 2.141. The “fold change relative to empty” value ([1]; input, dilution 0.01, rep3) was 1.451, the “fold change relative to empty” value ([1]; input, dilution 0.02, rep1) was 2.44 and the “fold change relative to empty” value ([1]; input, dilution 0.02, rep2) was 1.968. For the same compound, the “fold change relative to empty” value ([1]; input, dilution 0.02, rep3) was 1.816, the avg fold change ([1]; input, dilution 0.02, second listing, relative to avg. empty, average of rep1-rep3) was 2.105 and the “fold change relative to empty” value ([1]; input, dilution 0.02, second listing, rep2) was 1.992. For the same compound, the “fold change relative to empty” value ([1]; input, dilution 0.02, second listing, rep3) was 1.959, the “AnnexinV+ (Statistic)” value (HCT116 cells; [2]) was 18.2 and the “AnnexinV- (Statistic)” value (HCT116 cells; [2]) was 81.8. The Difference between means (HCT116 cells; empty w Tg vs. empty) was 28 ± 7.5, the “Mean ± SEM (Prism T-tests, Annexin V for MPZ-GFP)” value (HCT116 cells; no siDR5, mean ± SEM, N=3, values agree with avg Annexin V+) was 35 ± 6.7 N=3 and the “Annexin V+” value (HCT116 cells; [3]) was 48.1. For the same compound, the “Annexin V-” value (HCT116 cells; [3]) was 51.9, the “AnnexinV+ (Statistic, single cells)” value (HCT116 cells; siRNA scrambled, 2018-01-17 MPZ, gate all cells/Single Cells/AnnexinV+, Tg sample with empty construct) was 48.1 and the “AnnexinV- (Statistic, single cells)” value (HCT116 cells; siRNA scrambled, 2018-01-17 MPZ, gate all cells/Single Cells/AnnexinV-, Tg sample with empty construct) was 51.9. For the same compound, the “GFP+ (Statistic, single cells)” value (HCT116 cells; siRNA scrambled, 2018-01-17 MPZ, gate all cells/Single Cells/GFP+, Tg sample with empty construct) was 0.011, the “GFP- (Statistic, single cells)” value (HCT116 cells; siRNA scrambled, 2018-01-17 MPZ, gate all cells/Single Cells/GFP-, Tg sample with empty construct) was 100 and the “Q1: APC-A- , DAPI-A+ (Statistic, single cells)” value (HCT116 cells; siRNA scrambled, 2018-01-17 MPZ, gate all cells/Single Cells/Q1, Tg sample with empty construct) was 10.8. The “Q2: APC-A+ , DAPI-A+ (Statistic, single cells)” value (HCT116 cells; siRNA scrambled, 2018-01-17 MPZ, gate all cells/Single Cells/Q2, Tg sample with empty construct) was 31.2, the “Q3: APC-A+ , DAPI-A- (Statistic, single cells)” value (HCT116 cells; siRNA scrambled, 2018-01-17 MPZ, gate all cells/Single Cells/Q3, Tg sample with empty construct) was 13.1 and the “Q4: APC-A- , DAPI-A- (Statistic, single cells)” value (HCT116 cells; siRNA scrambled, 2018-01-17 MPZ, gate all cells/Single Cells/Q4, Tg sample with empty construct) was 45. The “SytoxBlue+ (Statistic, single cells)” value (HCT116 cells; siRNA scrambled, 2018-01-17 MPZ, gate all cells/Single Cells/SytoxBlue+, Tg sample with empty construct) was 40.3, the “SytoxBlue- (Statistic, single cells)” value (HCT116 cells; siRNA scrambled, 2018-01-17 MPZ, gate all cells/Single Cells/SytoxBlue-, Tg sample with empty construct) was 59.7 and the “dead cells (Statistic)” value (HCT116 cells; siRNA scrambled, 2018-01-17 MPZ, gate dead cells of all events, Tg sample with empty construct) was 26.5. The “FITC-A+ (Statistic, dead cells)” value (HCT116 cells; siRNA scrambled, 2018-01-17 MPZ, gate dead cells/Single Cells/FITC-A+, Tg sample with empty construct) was 0.016, the “FITC-A- (Statistic, dead cells)” value (HCT116 cells; siRNA scrambled, 2018-01-17 MPZ, gate dead cells/Single Cells/FITC-A-, Tg sample with empty construct) was 100 and the “Annexin V+” value (HCT116 cells; [4]) was 32.2. For the same compound, the “Annexin V-” value (HCT116 cells; [4]) was 67.8, the “Annexin V+” value (HCT116 cells; [5]) was 25.7 and the “Annexin V-” value (HCT116 cells; [5]) was 74.3. The “avg Annexin V+” value (HCT116 cells; [6]) was 35.3333, the “avg Annexin V-” value (HCT116 cells; [6]) was 64.6667 and the “Cq GAPDH” value (GAPDH; mean of 3 replicates) was 18.752. For the same compound, the “avg. fold induction GAPDH” value (GAPDH; relative to empty traffo, mean of 3 replicates) was 1.009, the “fold induction GAPDH” value (GAPDH; relative to empty traffo, replicate 1) was 0.7989 and the “fold induction GAPDH” value (GAPDH; relative to empty traffo, replicate 2) was 1.157. The “fold induction GAPDH” value (GAPDH; relative to empty traffo, replicate 3) was 1.071, the “2^-(deltaCq) GAPDH” value (GAPDH; replicate 1) was 0.8014 and the “Cq GAPDH” value (GAPDH; replicate 1) was 19.0714. The “Cq(sample) - avg Cq(GAPDH), GAPDH” value (GAPDH; replicate 1) was 0.3194, the “2^-(deltaCq) GAPDH” value (GAPDH; replicate 2) was 1.161 and the “Cq GAPDH” value (GAPDH; replicate 2) was 18.5367. The “Cq(sample) - avg Cq(GAPDH), GAPDH” value (GAPDH; replicate 2) was -0.2154, the “2^-(deltaCq) GAPDH” value (GAPDH; replicate 3) was 1.075 and the “Cq GAPDH” value (GAPDH; replicate 3) was 18.648. The “Cq(sample) - avg Cq(GAPDH), GAPDH” value (GAPDH; replicate 3) was -0.104.

With “FTWRYQPEGGRDAISIFHYA [MPZ-ecto peptide-eGFP, expressed construct: MPZ ectodomain replaced by the MPZ-ecto peptide, GFP-tagged]” the “Caspase 8 activity, fold change relative to GFP” value ([1]; Rep 1, HCT116, ecto 400 ng, YYEE and Arom-to-E 200 ng) was 2.6, the “Caspase 8 activity, fold change relative to GFP” value ([1]; Rep 2, HCT116, ecto 400 ng, YYEE and Arom-to-E 200 ng) was 2.183 and the “AVG fold change relative to GFP” value ([1]; Rep 2, HCT116) was 2.183 fold. The “Caspase 8 activity, fold change relative to GFP” value ([1]; Rep 3, HCT116, ecto 400 ng, YYEE and Arom-to-E 200 ng) was 2.309, the “AVG fold change relative to GFP” value ([1]; Rep 3, HCT116) was 2.309 fold and the “Caspase 8 activity, fold change relative to GFP, avg of biological replicates” value ([1]; avg of n = 3 biol rep, HCT116, ecto 400 ng, YYEE and Arom-to-E 200 ng, SEM of n = 3 in own column) was 2.364. For the same compound, the “% IP'ed, average” value (DR5; [7]) was 7.7348%, the “fraction IP'ed, average” value (DR5; [7]) was 0.07735 and the “input (*dilution factor)” value (DR5; GFP IP, HCT116, band intensity, background subtracted, divided by dilution factor 0.1, Rep 2) was 64608140. For the same compound, the “beads (*dilution factor)” value (DR5; GFP IP, HCT116, band intensity, background subtracted, divided by dilution factor 0.25, Rep 2) was 5226200, the “beads (*diluton factor)” value (DR5; [8]) was 10106176 and the “input (*dilution factor)” value (DR5; [8]) was 136930440. The “fraction IP'ed” value (DR5; GFP IP, HCT116, Rep 1) was 0.07381, the “fraction IP'ed” value (DR5; GFP IP, HCT116, Rep 2) was 0.08089 and the “Mean ± SEM of fraction IP'ed” value (DR5; GFP IP, HCT116, n=2, from unpaired t test sheet) was 0.07735 ± 0.003543, n=2. The “DR5 complex proteins in GFP immunoprecipitates” value (DR5; HCT116, 24 hr post-transfection) was “enriched for DR5 relative to the Glu-containing mutant peptides”, the “DR5 beads (*diluton factor)” value (DR5; Rep 1, DR5 blot densitometry of beads (GFP IP), background subtracted, adjusted for dilution factor 0.25) was 10106176 and the “DR5 input (*dilution factor)” value (DR5; Rep 1, DR5 blot densitometry of input, background subtracted, adjusted for dilution factor 0.1) was 136930440. The “DR5 fraction IP'ed” value (DR5; Rep 1, GFP IP, beads over input) was 0.07381, the “annexin V staining” value (HCT116 cells; HCT116, 24 hr, relative to empty vector or WT) was “increased annexin V staining relative to the empty vector” and the “Annexin V +, Sytox Blue + cells” value (HCT116 cells; + z-VAD) was 8.37% of cells. For the same compound, the “Annexin V +, Sytox Blue - cells” value (HCT116 cells; + z-VAD (20 μm [sic])) was 3.77% of cells, the “Annexin V -, Sytox Blue - cells” value (HCT116 cells; + z-VAD (20 μm [sic])) was 86.3% of cells and the “Annexin V +, Sytox Blue + cells” value (HCT116 cells; no z-VAD) was 19.1% of cells. For the same compound, the “Annexin V +, Sytox Blue - cells” value (HCT116 cells; no z-VAD) was 11.5% of cells and the “Annexin V -, Sytox Blue - cells” value (HCT116 cells; no z-VAD) was 65.3% of cells.
